Experimental data as given in patent publication US10617697B2, “Extracts of edible fungi enriched in vitamin D and compostions thereof and their use in the treatment of immune-related disorders” (GAVISH-GALILEE BIO APPLICATIONS LTD, priority 2015, dated 2020).

System: immune-mediated hepatitis harboring mice
Assay: ConA hepatitis in mice, serum liver enzymes after oral pre-treatment
Format: in vivo, C57BL/6 mice
Settings: for ALT serum levels: serum 16 hours after ConA
Description: Male C57BL/6 mice (11-12 weeks old) were obtained from Harlan Laboratories (Jerusalem, Israel) and maintained in the Animal Core of the Hadassah-Hebrew University Medical School. Mice were administered standard laboratory chow and water ad libitum and kept in a 12 hour light/dark cycle. Animal experiments were carried out according to the guidelines of the Hebrew University-Hadassah Institutional Committee for Care and Use of Laboratory Animals and with the committee's approval.
Concanavalin A (ConA, MP Biomedicals, USA) was dissolved in 50 mM Tris pH 7, 150 mM NaCl, 4 mM CaCl2 and was injected into the tail vein at a dose of 500 μg/mouse (15 mg/kg) in the first experiment, and 400 μg/mouse in the second experiment. Mice were sacrificed 16 hours following ConA injection. Blood and liver tissue were collected for further analysis
Two consecutive experiments were conducted. In the first study, 4 groups of mice were studied (n=5-6 mice/group). Mice in control group were treated 2 hours before ConA injection with DDW (di distilled water). The first treated group received vitamin D oral supplement (1 IU of vitamin D in saline) twice daily for 3 days prior to Concanavalin A-induced immune liver damage. The second treated group was treated orally with crude freeze-dried biomass derived from Lentinula edodes (LE) edible mushrooms (7.5 mg of mushrooms) at the same timing and frequency, while the third treated group was treated with vitamin D enriched LE (7.5 mg of freeze-dried mushrooms containing 1.125 IU of vitamin D). In a subsequent study, four groups of mice (n=5-7 mice/group) were treated by the same protocol detailed above, but the frequency of the oral treatment was increased from two to three times daily.
Serum was obtained from individual mice after sacrifice. The serum aspartate aminotransferase (AST) and alanine aminotransferase (ALT) levels were determined with an automatic analyzer.

Structure (SMILES): C=C1CC[C@H](O)C/C1=C/C=C1\CCC[C@]2(C)[C@@H]([C@H](C)/C=C/[C@H](C)C(C)C)CC[C@@H]12 [vitamin D, ergocalciferol]
- proportion of severe liver injury (defined as ALT>2611 U/L) (first experiment, oral twice daily for 3 days before ConA): 60%
- ALT serum levels (first experiment, oral twice daily for 3 days before ConA 500 μg/mouse): 2802 U/L
- proportion of severe liver injury (defined as ALT >2000 U/L) (second experiment, oral three times daily for 3 days before ConA): 100%
- proportion of severe liver injury by AST (defined as AST>2000 U/L) (second experiment, oral three times daily for 3 days before ConA, data not shown): 100%
- ALT serum levels (second study, oral three times daily for 3 days before ConA 400 μg/mouse): 4040 U/L
